According to patent publication US7655676B2, “Use of amide derivative of GE 2270 factor A3 for the treatment of acne” (Naicons S.C.A.R.L., priority 2002, dated 2010):
In brackets after ≈: the same amount, converted by molar mass. Several values for one entry are separate records, joined by “and”; a condition that tells them apart may be missing. Equal entries are not always repeated.

Key:
[1] = test system: clinical isolates of P. acnes displaying antibiotic-resistant phenotypes; assay: MIC against clinical isolates of P. acnes displaying antibiotic-resistant phenotypes (Table 2); format: cell-based, Propionibacterium acnes; settings: for Cumul. %: resistant isolates
Excerpt: (§3) MIC50 and MIC90 means minimum inhibitory concentration capable of inhibiting 50% and 90%, respectively, of the strains tested.

[2] = test system: clinical isolates of P. acnes displaying antibiotic-sensitive phenotypes; assay: MIC against clinical isolates of P. acnes displaying antibiotic-sensitive phenotypes (Table 3); format: cell-based, Propionibacterium acnes; settings: Cutibacterium acnes
Excerpt: as §3

Streptococcus pyogenes = assay: MIC in vitro, Streptococcus pyogenes (Table 1); format: cell-based; settings: C 203, MH
Excerpt: (§1) In particular, bacterial strains which should not be affected by topical administration of the anti-acne candidate compound are Staphylococcus aureus, Staphylococcus epidermidis, and Streptococcus pyogenes strains.
(§2) The tests have been carried out in comparison with antibiotic GE 2270 and four representative compounds (B, C, D and E) described in U.S. Pat. No. 5,599,791.

[3] = test system: Staphylococcus epidermidis; assay: MIC in vitro, Staphylococcus epidermidis (Table 1); format: cell-based; settings: ATCC 12228, MH
Excerpt: as §1, §2

Propionibacterium acne = assay: MIC in vitro, Propionibacterium acne strains (Table 1); format: cell-based, Propionibacterium acnes
Excerpt: as §1, §2

Staphylococcus aureus = assay: MIC in vitro, Staphylococcus aureus (Table 1); format: cell-based
Excerpt: as §1, §2

Row | Compound | MIC50 ([1]; Cutibacterium acnes) | MIC90 ([1]; Cutibacterium acnes) | N° isolates ([1]; resistant isolates with MIC 512 μg/ml) | N° isolates ([1]; resistant isolates with MIC 1024 μg/ml) | N° isolates ([1]; resistant isolates with MIC 2048 μg/ml) | Cumul. % ([1]; cumulative at MIC 512 μg/ml) | Cumul. % ([1]; cumulative at MIC 1024 μg/ml) | Cumul. % ([1]; cumulative at MIC 2048 μg/ml) | MIC90 [2] | MIC (Streptococcus pyogenes) | MIC [3] | MIC (Propionibacterium acne; ATCC 6919, Wilkins Chalgren (WC)) | MIC (Propionibacterium acne; ATCC 6922, WC) | MIC (Propionibacterium acne; ATCC 25746, WC) | MIC (Propionibacterium acne; clinical isolate, WC (one table line per isolate)) | MIC (Propionibacterium acne; clinical isolate, medium not given) | MIC (Staphylococcus aureus; MRSA, MH) | MIC (Staphylococcus aureus; Smith ATCC 19636, MH + 30% bovine serum) | MIC (Staphylococcus aureus; Smith ATCC 19636, Mueller Hinton (MH))
1 | CC[C@H]1OC(=O)[C@H](C)[C@@H](O[C@H]2C[C@@](C)(OC)[C@@H](O)[C@H](C)O2)[C@H](C)[C@@H](O[C@@H]2O[C@H](C)C[C@H](N(C)C)[C@H]2O)[C@](C)(O)C[C@@H](C)C(=O)[C@H](C)[C@@H](O)[C@]1(C)O [Erythromycin] | 1020 µg/mL (≈ 1400 µM) | 2050 µg/mL (≈ 2790 µM) | 1 | 11 | 3 | 7% | 80% | 100% | 0.125 µg/mL (≈ 0.17 µM) |  |  |  |  |  |  |  |  |  | 
2 | GE 2270 |  |  |  |  |  |  |  |  |  | 0.25 µg/mL | <0.125 µg/mL | <0.125 µg/mL | <0.125 µg/mL | <0.125 µg/mL | <0.125 µg/mL and 0.125 µg/mL | <0.125 µg/mL | <0.125 µg/mL | 0.25 µg/mL | 0.06 µg/mL
